Source: patent US12240840B2, “Amide-substituted heterocyclic compounds for the treatment of conditions related to the modulation of IL-12, IL-23 and/or IFN-alpha” (BRISTOL-MYERS SQUIBB COMPANY, priority 2018, dated 2025)

System: IFNα-induced pSTAT5 (pY694) in CD3 positive cells of human whole blood
Assay: IFNα-Induced STAT Phosphorylation in Human Whole Blood
Assay type: cell-based
Settings: Homo sapiens, 1 h compound incubation, 1000 U/mL recombinant human IFNα A/D for 15 min, pSTAT5 in CD3 positive population, read-out: Human WB IFNα-Induced Stat Phosph. (IC50)
Method: IFNα-Induced STAT Phosphorylation in Human Whole Blood
After an hour long incubation with compound, human whole blood (drawn with either EDTA or ACD-A as anti-coagulant) was stimulated with 1000 U/mL recombinant human IFNα A/D (R&D Systems 11200-2) for 15 min. The stimulation was stopped by adding Fix/Lyse buffer (BD 558049). Cells were stained with a CD3 FITC antibody (BD 555916), washed, and permeabilized on ice using Perm III buffer (BD 558050). Cells were then stained with an Alexa-Fluor 647 pSTAT5 (pY694) antibody (BD 612599) for 30 min prior to analysis on the FACS Canto II. The amount of pSTAT5 expression was quantitated by median fluorescence intensity after gating on the CD3 positive population.
IFNα-Induced STAT Phosphorylation in Human Whole Blood Inhibition Data ND—no data available

| Structure (SMILES) | IC50 |
| --- | --- |
| [2H]C([2H])([2H])NC(=O)c1nnc(NC(=O)C2CC2)cc1Nc1cccc(-c2ncc(CNS(C)(=O)=O)s2)c1OC [Example 265] | 530 nM |
| [2H]C([2H])([2H])NC(=O)c1nnc(Nc2cnc(OC)cn2)cc1Nc1cccc(-c2csc(C(=O)N3CCOCC3)n2)c1OC [Example 564] | > 10000 nM |
| [2H]C([2H])([2H])NC(=O)c1nnc(NC(=O)C2CC2)cc1Nc1cccc(-c2ncc(C(=O)NCCN3CCCC(F)C3)s2)c1OC (stereo not drawn) [Example 347] | 13 nM |
| [2H]C([2H])([2H])NC(=O)c1nnc(NC(=O)C2CC2)cc1Nc1cccc(-c2cc(C(=O)NCCOC)n(C)n2)c1OC [Example 458] | 1210 nM |
| [2H]C([2H])([2H])NC(=O)c1nnc(NC(=O)C2CC2)cc1Nc1cccc(-c2cnc(C(=O)N(C)C)s2)c1OC [Example 239, 5-(3-((6-(cyclopropanecarboxamido)-3-((methyl-d3)carbamoyl)pyridazin-4-yl)amino)-2-methoxyphenyl)-N,N-dimethylthiazole-2-carboxamide] | 50 nM |
| COc1c(Nc2cc(NC(=O)C3CC3)nnc2C(N)=O)cccc1-c1noc(CNS(=O)(=O)C(C)C)n1 [Example 50] | 70 nM |
| [2H]C([2H])([2H])NC(=O)c1nnc(NC(=O)C2CC2)cc1Nc1cccc(-c2nc(CN3CCN(S(C)(=O)=O)CC3)no2)c1OC [Example 128] | 30 nM |
| [2H]C([2H])([2H])NC(=O)c1nnc(NC(=O)C2CC2)cc1Nc1cccc(-c2nc([C@@H](NC(=O)OC(C)(C)C)[C@@H](C)OC(C)(C)C)no2)c1OC [Example 185] | > 10000 nM |
| [2H]C([2H])([2H])NC(=O)c1nnc(NC(=O)C2CC2)cc1Nc1cccc(-c2ncc(C(=O)N3CCNC(=O)C3C)s2)c1OC (stereo not drawn) [Example 336] | 260 nM |
| [2H]C([2H])([2H])NC(=O)c1nnc(NC(=O)C2CC2)cc1Nc1cc(F)cc(-c2cc(C(=O)N3CCC(N4CCCC4)CC3)n(C)n2)c1OC [Example 516] | 170 nM |
| [2H]C([2H])([2H])NC(=O)c1nnc(NC(=O)C2CC2)cc1Nc1cccc(-c2nc(CN(C)C(C)=O)no2)c1OC [Example 173] | 300 nM |
| [2H]C([2H])([2H])NC(=O)c1nnc(NC(=O)C2CC2)cc1Nc1cccc(-n2cc(CN3CCS(=O)(=O)CC3)nn2)c1OC [Example 1, 6-(cyclopropanecarboxamido)-4-((3-(4-((1,1-dioxidothiomorpholino)methyl)-1H-1,2,3-triazol-1-yl)-2-methoxyphenyl)amino)-N-(trideuteromethyl)pyridazine-3-carboxamide] | 2800 nM |
| [2H]C([2H])([2H])NC(=O)c1nnc(NC(=O)C2CC2)cc1Nc1cccc(-c2nc([C@@H](C)NC(=O)CC)no2)c1OC [Example 196] | 1180 nM |
| [2H]C([2H])([2H])NC(=O)c1nnc(NC(=O)C2CC2)cc1Nc1cccc(-c2noc(CN3CCN(C(=O)OC(C)(C)C)CC3)n2)c1OC [Example 34] | 1010 nM |
| [2H]C([2H])([2H])NC(=O)c1nnc(NC(=O)C2CC2)cc1Nc1cccc(-c2nc(CC(=O)NCCOC)no2)c1OC [Example 176] | 450 nM |
| [2H]C([2H])([2H])NC(=O)c1cnc(NC(=O)C2CC2)cc1Nc1cc(F)cc(-c2cnn(C)n2)c1OC [Example 453] | 60 nM |

| Structure (SMILES) | IC50 |
| --- | --- |
| [2H]C([2H])([2H])NC(=O)c1cnc(NC(=O)C2CC2)cc1Nc1cccc(-c2noc(CN3CCN(S(C)(=O)=O)CC3)n2)c1OC [Example 95] | 21 nM |
| [2H]C([2H])([2H])NC(=O)c1nnc(NC(=O)C2CC2)cc1Nc1cccc(-c2cc(C(=O)N3CCOCC3)n(C)n2)c1OC [Example 459] | 80 nM |
| [2H]C([2H])([2H])NC(=O)c1nnc(NC(=O)C2CC2)cc1Nc1cccc(-c2cc(C(=O)N3CCC(CCN4CCCC4)CC3)n(C)n2)c1OC [Example 541] | 1390 nM |
| [2H]C([2H])([2H])NC(=O)c1nnc(NC(=O)C2CC2)cc1Nc1cccc(-c2cc(C(=O)NCCC#N)n(C)n2)c1OC [Example 477] | 1100 nM |
| [2H]C([2H])([2H])NC(=O)c1cnc(Nc2ccc(OC)nn2)cc1Nc1cc(F)cc(-c2cnn(C)n2)c1OC [Example 452] | 150 nM |
| [2H]C([2H])([2H])NC(=O)c1nnc(NC(=O)C2CC2)cc1Nc1cccc(-c2ncc(C(=O)N3CCC3)s2)c1OC [Example 313] | 70 nM |
| COc1c(Nc2cc(NC(=O)C3CC3)nnc2C(N)=O)cccc1-c1nccs1 [Example 406] | 180 nM |
| COc1c(Nc2cc(NC(=O)C3CC3)nnc2C(N)=O)cccc1-c1ncc(C(=O)NC2CCCCC2)s1 [Example 396] | 120 nM |
| [2H]C([2H])([2H])NC(=O)c1nnc(NC(=O)C2CC2)cc1Nc1cccc(-c2nc(C3(NC(C)=O)CC3)no2)c1OC [Example 165] | 530 nM |
| [2H]C([2H])([2H])NC(=O)c1nnc(NC(=O)C2CC2)cc1Nc1cccc(-c2nc(CN3CCN(S(C)(=O)=O)CC3=O)no2)c1OC [Example 141] | 240 nM |
| [2H]C([2H])([2H])NC(=O)c1nnc(NC(=O)C2CC2)cc1Nc1cccc(-c2noc(CNC(=O)OC)n2)c1OC [Example 30] | 1380 nM |
| [2H]C([2H])([2H])NC(=O)c1nnc(Nc2ccc(C)nn2)cc1Nc1cccc(-c2nc(CN3CCOCC3)no2)c1OC [Example 237] | 70 nM |
| [2H]C([2H])([2H])NC(=O)c1nnc(NC(=O)C2CC2)cc1Nc1cccc(-c2ncc(C(=O)NC3CCC(N(C)C)CC3)s2)c1OC (stereo not drawn) [Example 307] | 30 nM |
| [2H]C([2H])([2H])NC(=O)c1nnc(NC(=O)C2CC2)cc1Nc1cccc(-c2nc(C)c(C(=O)NCCOC)s2)c1OC [Example 366] | 510 nM |
| [2H]C([2H])([2H])NC(=O)c1cnc(NC(=O)C2CC2)cc1Nc1cccc(-c2noc(CN3CCN(C(=O)OC)CC3)n2)c1OC [Example 92] | 30 nM |
| [2H]C([2H])([2H])NC(=O)c1nnc(NC(=O)C2CC2)cc1Nc1cccc(-c2cnn(CCNS(C)(=O)=O)c2)c1OC [Example 560] | 2210 nM |

Continued by falling IC50, values first:

| IC50 | Structure (SMILES) |
| --- | --- |
| 2730 nM | [2H]C([2H])([2H])NC(=O)c1nnc(NC(=O)C2CC2)cc1Nc1cccc(-c2nc(CNC(=O)CN3CCNCC3)no2)c1OC [Example 162] |
| 2010 nM | [2H]C([2H])([2H])NC(=O)c1nnc(NC(=O)C2CC2)cc1Nc1cccc(-c2nc([C@H](C)NC(=O)OC)no2)c1OC [Example 182] |
| 950 nM | [2H]C([2H])([2H])NC(=O)c1nnc(NC(=O)C2CC2)cc1Nc1cccc(-c2cc(C(=O)NCCCOC)n(C)n2)c1OC [Example 527] |
| 570 nM | [2H]C([2H])([2H])NC(=O)c1nnc(NC(=O)C2CC2)cc1Nc1cc(F)cc(-c2cc(C(=O)N3CCNC(=O)C3)n(C)n2)c1OC [Example 519] |
| 520 nM | [2H]C([2H])([2H])NC(=O)c1nnc(NC(=O)C2CC2)cc1Nc1cccc(-c2cc(C(=O)N(C)CCN(C)C)n(C)n2)c1OC [Example 526] |
| 410 nM | [2H]C([2H])([2H])NC(=O)c1nnc(NC(=O)C2CC2)cc1Nc1cccc(-c2nc([C@@H](C)N)no2)c1OC [Example 191] |
| 310 nM | COc1c(Nc2cc(NC(=O)C3CC3)nnc2C(N)=O)cccc1-c1ncc(C(=O)N2CCOCC2)o1 [Example 414] |
| 290 nM | COc1c(Nc2cc(NC(=O)C3CC3)nnc2C(N)=O)cccc1-c1ncc(C(=O)NCc2cccc(Cl)c2)o1 [Example 421] |
| 230 nM | [2H]C([2H])([2H])NC(=O)c1nnc(NC(=O)C2CC2)cc1Nc1cccc(-c2nc(CNC)no2)c1OC [Example 168] |
| 200 nM | [2H]C([2H])([2H])NC(=O)c1nnc(NC(=O)C2CC2)cc1Nc1cccc(-c2cc(C(C)(C)O)n(C)n2)c1OC [Example 487] |
| 180 nM | [2H]C([2H])([2H])NC(=O)c1cnc(NC(=O)C2CC2)cc1Nc1cccc(-c2nc(CO)no2)c1OC [Example 217] |
| 160 nM | [2H]C([2H])([2H])NC(=O)c1nnc(NC(=O)C2CC2)cc1Nc1cccc(-c2cnn(CCNC(=O)COC)n2)c1OC [Example 433] |
| 160 nM | [2H]C([2H])([2H])NC(=O)c1nnc(NC(=O)C2CC2)cc1Nc1cccc(-c2ncc(C(=O)N(C)C(C)C)s2)c1OC [Example 292] |
| 150 nM | [2H]C([2H])([2H])NC(=O)c1nnc(NC(=O)C2CC2)cc1Nc1cccc(-c2cc(C(=O)N3CCCC3)n(C)n2)c1OC [Example 482] |
| 110 nM | [2H]C([2H])([2H])NC(=O)c1nnc(NC(=O)C2CC2)cc1Nc1cc(F)cc(-c2cc(C(=O)N3CCC[C@H]3CO)n(C)n2)c1OC [Example 507] |
| 100 nM | [2H]C([2H])([2H])NC(=O)c1cnc(NC(=O)C2CC2)cc1Nc1cccc(-c2ncc(C(C)(C)O)s2)c1OC [Example 270] |
| 80 nM | [2H]C([2H])([2H])NC(=O)c1nnc(NC(=O)C2CC2)cc1Nc1cccc(-c2nc(C)c(C(=O)N3CCC(N(C)C)CC3)s2)c1OC [Example 354] |
| 50 nM | [2H]C([2H])([2H])NC(=O)c1nnc(NC(=O)C2CC2)cc1Nc1cccc(-c2ncc(C(=O)N3CC(N(C)C)C3)s2)c1OC [Example 334] |
| 30 nM | [2H]C([2H])([2H])NC(=O)c1nnc(NC(=O)C2CC2)cc1Nc1cccc(-c2ncc(C(=O)NCCCN(C)C)s2)c1OC [Example 317] |
| 30 nM | [2H]C([2H])([2H])NC(=O)c1nnc(NC(=O)C2CC2)cc1Nc1cccc(-c2noc([C@@H]3C[C@@H](O)CN3S(C)(=O)=O)n2)c1OC [Example 75] |
| 24 nM | [2H]C([2H])([2H])NC(=O)c1nnc(NC(=O)C2CC2)cc1Nc1cccc(-c2noc(CN3CCOCC3)n2)c1OC [Example 7] |
| 24 nM | COc1c(Nc2cc(NC(=O)C3CC3)nnc2C(N)=O)cccc1-c1noc(CNS(=O)(=O)c2ccccc2)n1 [Example 13] |
